According to patent US20240025906A1 (NEURON23, INC., priority 2022, published 2024):

Legend:
[1] = system: JAK1/TYK2 pSTAT5 (Tyr694/699) in THP-1 cell line; experiment: IFNa-stimulated JAK1/TYK2 pSTAT5 (Tyr694/699) inhibition cellular assay, AlphaLISA; assay type: cell-based; conditions: Homo sapiens; THP-1 cells, IFNa-stimulated, AlphaLISA (Assay B); read-out: Cellular_THP1_IFNa-pSTATS_TYK2
In short: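 THP-1, 2e4 cells/well, HBSS; cpd 1 h 37 °C (10000–0.04 nM final, 6-fold, 8 pt); IFNa 100 ng/mL added, 30 min; lyse, freeze −80 °C; pSTAT5 AlphaLISA, 615 nm; 4PL IC50, bottom fixed 0, slope −1.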

TYK2 JH2 = target: T1, TYK2 JH2 (Homo sapiens, UniProt P29597); experiment: TYK2 JH2 binding assay (KINOMEscan KdELECT competitive binding); conditions: TYK2 JH2 domain, KINOMEscan KdELECT (Assay A); read-out: Biochemical TYK2_DiscoverX_JH2_BND_Kd
T1 construct: purchased DiscoverX (KINOMEscan KdELECT service); host or cells: E. coli BL21-derived (T7 phage display) or HEK-293
T1 sequence (P29597 589-875 limits assumed): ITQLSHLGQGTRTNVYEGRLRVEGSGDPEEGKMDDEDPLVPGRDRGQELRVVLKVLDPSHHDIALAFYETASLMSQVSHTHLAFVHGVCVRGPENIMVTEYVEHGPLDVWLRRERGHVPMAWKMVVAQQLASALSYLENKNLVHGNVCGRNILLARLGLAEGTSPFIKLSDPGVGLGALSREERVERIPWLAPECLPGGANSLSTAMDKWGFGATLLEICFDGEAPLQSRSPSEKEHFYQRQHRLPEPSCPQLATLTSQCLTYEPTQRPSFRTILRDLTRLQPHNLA
In short: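 The assay measures displacement of DNA- or phage-tagged TYK2 pseudokinase domain from an affinity resin; compound binding lowers the amount captured, read by qPCR. Incubation lasts 1 h at room temperature.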

SMILES | IC50 [1] | Kd (TYK2 JH2)
CNc1ncc(C#Cc2ccc(OC(C)CC3COC3)cc2)c2cc(NC(=O)C3CC3)ncc12 (centres unmarked) [Example 713, N-(8-(methylamino)-5-((4-((1-(oxetan-3-yl)propan-2-yl)oxy)phenyl)ethynyl)-2,7-naphthyridin-3-yl)cyclopropanecarboxamide] | ≤ 500 nM | ≤ 100 nM
CNc1ncc(C#Cc2ccc(OCC(C)(C)O)cc2)c2cc(NC(=O)C3CC3)ncc12 [Example 714, N-(5-((4-(2-hydroxy-2-methylpropoxy)phenyl)ethynyl)-8-(methylamino)-2,7-naphthyridin-3-yl)cyclopropanecarboxamide] | ≤ 500 nM | ≤ 100 nM
CNc1ncc(C#Cc2ccc(OC3CN(S(C)(=O)=O)C3)cc2)c2cc(NC(=O)C3CC3)ncc12 [Example 715, N-(8-(methylamino)-5-((4-((1-(methylsulfonyl)azetidin-3-yl)oxy)phenyl)ethynyl)-2,7-naphthyridin-3-yl)cyclopropanecarboxamide] | ≤ 500 nM | ≤ 100 nM
CNc1ncc(C#Cc2ccc3cc(COC)n(C)c3c2)c2cc(NC(=O)C3CC3)ncc12 [Example 716, N-(5-((2-(methoxymethyl)-1-methyl-1H-indol-6-yl)ethynyl)-8-(methylamino)-2,7-naphthyridin-3-yl)cyclopropanecarboxamide] | ≤ 500 nM | ≤ 100 nM
CNc1ncc(C#Cc2ccc3oc(COC)cc3c2)c2cc(NC(=O)C3CC3)ncc12 [Example 717, N-(5-((2-(methoxymethyl)benzofuran-5-yl)ethynyl)-8-(methylamino)-2,7-naphthyridin-3-yl)cyclopropanecarboxamide] | ≤ 500 nM | ≤ 100 nM
CNc1ncc(C#Cc2cc(F)c(OC)cn2)c2cc(NC(=O)C3CC3)ncc12 [Example 718, N-(5-((4-fluoro-5-methoxypyridin-2-yl)ethynyl)-8-(methylamino)-2,7-naphthyridin-3-yl)cyclopropanecarboxamide] | ≤ 500 nM | ≤ 100 nM
CNc1ncc(C#Cc2ccc3nc(OC)n(C)c3c2)c2cc(NC(=O)C3CC3)ncc12 [Example 719, N-(5-((2-methoxy-1-methyl-1H-benzo[d]imidazol-6-yl)ethynyl)-8-(methylamino)-2,7-naphthyridin-3-yl)cyclopropanecarboxamide] | ≤ 500 nM | ≤ 100 nM
CNc1ncc(C#Cc2ccc3nc4n(c3c2)CCOC4)c2cc(NC(=O)C3CC3)ncc12 [Example 720, N-(5-((3,4-dihydro-1H-benzo[4,5]imidazo[2,1-c][1,4]oxazin-7-yl)ethynyl)-8-(methylamino)-2,7-naphthyridin-3-yl)cyclopropanecarboxamide] | ≤ 500 nM | ≤ 100 nM
CNc1ncc(C#Cc2cc3c(F)cccn3n2)c2cc(NC(=O)C3CC3)ncc12 [Example 721, N-(5-((4-fluoropyrazolo[1,5-a]pyridin-2-yl)ethynyl)-8-(methylamino)-2,7-naphthyridin-3-yl)cyclopropanecarboxamide] | ≤ 500 nM | ≤ 100 nM

Second part, the compound after the results:

IC50 [1] | Kd (TYK2 JH2) | SMILES
≤ 500 nM | ≤ 100 nM | CNc1ncc(C#Cc2cc3c(cc2C)nnn3C)c2cc(NC(=O)C3CC3)ncc12 [Example 700, N-(5-((1,5-dimethyl-1H-benzo[d][1,2,3]triazol-6-yl)ethynyl)-8-(methylamino)-2,7-naphthyridin-3-yl)cyclopropanecarboxamide]
≤ 500 nM | ≤ 100 nM | CNc1ncc(C#Cc2ccc(OCC3(C)COC3)cc2)c2cc(NC(=O)C3CC3)ncc12 [Example 701, N-(8-(methylamino)-5-((4-((3-methyloxetan-3-yl)methoxy)phenyl)ethynyl)-2,7-naphthyridin-3-yl)cyclopropanecarboxamide]
≤ 500 nM | ≤ 100 nM | CNc1ncc(C#Cc2ccc(OCC3CCO3)cc2)c2cc(NC(=O)C3CC3)ncc12 (centres unmarked) [Example 702, N-(8-(methylamino)-5-((4-(oxetan-2-ylmethoxy)phenyl)ethynyl)-2,7-naphthyridin-3-yl)cyclopropanecarboxamide]
≤ 500 nM | ≤ 100 nM | CNc1ncc(C#Cc2ccc(OC[C@@H](C)OC)cc2)c2cc(NC(=O)C3CC3)ncc12 [Example 703, (R)—N-(5-((4-(2-methoxypropoxy)phenyl)ethynyl)-8-(methylamino)-2,7-naphthyridin-3-yl)cyclopropanecarboxamide]
≤ 500 nM | ≤ 100 nM | CNc1ncc(C#Cc2ccc(OC[C@H](C)OC)cc2)c2cc(NC(=O)C3CC3)ncc12 [Example 704, (S)—N-(5-((4-(2-methoxypropoxy)phenyl)ethynyl)-8-(methylamino)-2,7-naphthyridin-3-yl)cyclopropanecarboxamide]
≤ 500 nM | ≤ 100 nM | CNc1ncc(C#Cc2ccc(OC3CN(C(C)=O)C3)cc2)c2cc(NC(=O)C3CC3)ncc12 [Example 705, N-(5-((4-((1-acetylazetidin-3-yl)oxy)phenyl)ethynyl)-8-(methylamino)-2,7-naphthyridin-3-yl)cyclopropanecarboxamide]
≤ 500 nM | ≤ 100 nM | CNc1ncc(C#Cc2ccc(OC3(C)COC3)cc2)c2cc(NC(=O)C3CC3)ncc12 [Example 706, N-(8-(methylamino)-5-((4-((3-methyloxetan-3-yl)oxy)phenyl)ethynyl)-2,7-naphthyridin-3-yl)cyclopropanecarboxamide]
≤ 500 nM | ≤ 100 nM | CNc1ncc(C#Cc2ccc(OC3COC3)cc2)c2cc(NC(=O)C3CC3)ncc12 [Example 707, N-(8-(methylamino)-5-((4-(oxetan-3-yloxy)phenyl)ethynyl)-2,7-naphthyridin-3-yl)cyclopropanecarboxamide]
≤ 500 nM | ≤ 100 nM | CNc1ncc(C#Cc2ccc(N3CCO[C@H](C)C3)cc2)c2cc(NC(=O)C3CC3)ncc12 [Example 708, (R)—N-(8-(methylamino)-5-((4-(2-methylmorpholino)phenyl)ethynyl)-2,7-naphthyridin-3-yl)cyclopropanecarboxamide]
≤ 500 nM | ≤ 100 nM | CNc1ncc(C#Cc2ccc(N3CCO[C@@H](C)C3)cc2)c2cc(NC(=O)C3CC3)ncc12 [Example 709, (S)—N-(8-(methylamino)-5-((4-(2-methylmorpholino)phenyl)ethynyl)-2,7-naphthyridin-3-yl)cyclopropanecarboxamide]
≤ 500 nM | ≤ 100 nM | CNc1ncc(C#Cc2ccc(OCC(C)(C)C#N)cc2)c2cc(NC(=O)C3CC3)ncc12 [Example 710, N-(5-((4-(2-cyano-2-methylpropoxy)phenyl)ethynyl)-8-(methylamino)-2,7-naphthyridin-3-yl)cyclopropanecarboxamide]
≤ 500 nM | ≤ 100 nM | CNc1ncc(C#Cc2ccc(Oc3ncn(C)n3)cc2)c2cc(NC(=O)C3CC3)ncc12 [Example 711, N-(5-((4-((1-methyl-1H-1,2,4-triazol-3-yl)oxy)phenyl)ethynyl)-8-(methylamino)-2,7-naphthyridin-3-yl)cyclopropanecarboxamide]
≤ 500 nM | ≤ 100 nM | CNc1ncc(C#Cc2ccc(OCC3CN(C)C3)cc2)c2cc(NC(=O)C3CC3)ncc12 [Example 712, N-(8-(methylamino)-5-((4-((1-methylazetidin-3-yl)methoxy)phenyl)ethynyl)-2,7-naphthyridin-3-yl)cyclopropanecarboxamide]
